Biological target: T1, P2X7 receptor (Homo sapiens, UniProt Q99572)
T1 construct: host or cells: THP-1 cells differentiated with LPS and IFN-γ
T1 sequence (Q99572 1-595): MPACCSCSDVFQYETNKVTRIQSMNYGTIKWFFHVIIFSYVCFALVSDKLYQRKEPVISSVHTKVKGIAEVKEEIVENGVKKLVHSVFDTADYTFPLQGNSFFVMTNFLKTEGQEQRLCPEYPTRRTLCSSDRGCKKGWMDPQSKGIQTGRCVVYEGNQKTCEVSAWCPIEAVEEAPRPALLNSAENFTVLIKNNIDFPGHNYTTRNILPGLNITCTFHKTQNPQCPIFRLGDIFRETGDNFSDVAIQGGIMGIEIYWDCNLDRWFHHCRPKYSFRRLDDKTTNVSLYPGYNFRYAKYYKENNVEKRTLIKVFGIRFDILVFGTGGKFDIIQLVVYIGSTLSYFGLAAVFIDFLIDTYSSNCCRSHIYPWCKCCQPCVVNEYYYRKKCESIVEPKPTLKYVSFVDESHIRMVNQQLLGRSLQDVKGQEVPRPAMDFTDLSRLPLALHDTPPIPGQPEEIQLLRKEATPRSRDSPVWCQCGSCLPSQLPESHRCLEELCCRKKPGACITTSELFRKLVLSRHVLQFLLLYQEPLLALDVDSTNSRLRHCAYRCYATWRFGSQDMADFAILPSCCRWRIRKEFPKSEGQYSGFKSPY
Test: IL-1β release assay in differentiated THP-1 cells stimulated with BzATP (Example 9)
Format: cell-based
Details: 0.1 μM compound (symbols *); differentiated THP-1 cells, BzATP 250 uM; read-out: IL-1β % Inhib. @ 0.3 or 0.1 uM
Description: THP-1 cells (ATCC Cat #285-IF-100) are plated in 96 well plates at a concentration of 200,000 cells per well and allowed to differentiate in RPMI-1640 media (ATCC Cat #30-2001) containing 10% FBS, 100 IU/mL penicillin, 100 ug/mL streptomycin, 100 ng/mL LPS and 100 ng/mL IFN-γ for 16 hours. Following differentiation, the cells are treated for an additional 2 hours in RPMI-1640 media containing 100 IU/mL penicillin, 100 ug/mL streptomycin and fresh LPS at 100 ng/mL. The cells are then pretreated for 30 minutes with the compound of interest at the appropriate concentration in RPMI media containing 100 IU/mL penicillin, 100 ug/mL streptomycin. Following the pretreatment 2′,3′-O-(4-benzoylbenzoyl)-adenosine 5′-triphosphate (Sigma Aldrich Cat #B6396) is added to a final concentration of 250 uM and the cells are incubated for an additional 45 minutes. 30 uL of cell supernatant is then collected and IL-1β levels determined via ELISA (R&D systems Cat. #HSLB50) according to manufacturer's recommendations using the Tecan Safire plate reader. Background adjusted IL-1β levels of drug treated and non-treated cells are used to calculate the percent inhibition.
The compounds set forth in Table 1 were tested for activity in a cellular model as described herein. Specifically, cells were pretreated with differing amounts of the compound under test and released IL-1β determined as in Example 9, above. Measurements were made and IC50 values, presented in Table 2, below, were determined by fitting the data to a four parameter logistic equation using GraphPad Prism software (GraphPad Software, Inc). The equation may be expressed by the following formula:
Y=Bottom+(Top−Bottom)/(1+10̂((Log EC50−X)*HillSlope))
Where X is the logarithm of concentration, Y is the response and Y starts at Bottom and goes to Top with a sigmoid shape.

Compound	inhibition at 0.1 µM
Cc1cc(C)cc(CC(=O)Nc2cccc3c(=O)n(C(C)CO)ccc23)c1 (stereo not shown) [Compound 119]	0 to 25%
CC(O)Cn1ccc2c(NC(=O)c3ccc(-c4ccccc4)o3)cccc2c1=O (stereo not shown) [Compound 127]	0 to 25%
CC(O)Cn1ccc2c(NC(=O)c3ccc(Cl)cc3Cl)cccc2c1=O (stereo not shown) [Compound 137]	0 to 25%
Cc1cccc(C(=O)Nc2cccc3c(=O)n(CC4(O)CCCCC4)ccc23)c1 [Compound 20]	0 to 25%
COc1cccc(CCC(=O)Nc2cccc3c(=O)n(CC4(O)CCCCC4)ccc23)c1 [Compound 10]	0 to 25%
Cc1ccc(CC(=O)Nc2cccc3c(=O)n(CC(C)O)ccc23)cc1 (stereo not shown) [Compound 162]	0 to 25%
CC(C(=O)Nc1cccc2c(=O)n(C(C)CO)ccc12)c1ccccc1 (stereo not shown) [Compound 103]	0 to 25%
COc1ccc(C(=O)Nc2cccc3c(=O)n(CC(C)(C)O)ccc23)c(C)c1 [Compound 186]	0 to 25%
Cc1cccc(C(=O)Nc2cccc3c(=O)n(C(C)CO)ccc23)c1C (stereo not shown) [Compound 98]	0 to 25%
COc1ccc(CC(=O)Nc2cccc3c(=O)n(C(C)CO)ccc23)c(OC)c1 (stereo not shown) [Compound 120]	0 to 25%

Same assay, conditions: 0.1 μM compound; differentiated THP-1 cells, BzATP 250 uM; "*" symbols; read-out: IL-1β % Inhib. @ 0.3 or 0.1 uM

Compound	inhibition at 0.1 µM
Cc1ccc(C(=O)Nc2cccc3c(=O)n(CC(C)(C)O)ccc23)c(C)c1 [Compound 201]	0 to 25%
COc1ccc(CC(=O)Nc2cccc3c(=O)n(CC(C)(C)O)ccc23)cc1 [Compound 214]	0 to 25%
CC(C)(O)Cn1ccc2c(NC(=O)c3ccc(Cl)cc3Cl)cccc2c1=O [Compound 198]	0 to 25%

Same assay, conditions: 0.3 μM compound (symbols +); differentiated THP-1 cells, BzATP 250 uM; read-out: IL-1β % Inhib. @ 0.3 or 0.1 uM

Compound	inhibition at 0.3 µM
O=C(Cc1cc(C(F)(F)F)ccc1C(F)(F)F)Nc1cccc2c(=O)n(CCO)ccc12 [Compound 70]	26 to 50%
O=C(CCc1ccc(Cl)cc1)Nc1cccc2c(=O)n(CC3(O)CCCCC3)ccc12 [Compound 49]	0 to 25%
O=C(Nc1cccc2c(=O)n(CC3(O)CCCCC3)ccc12)c1cc2cc(Cl)ccc2o1 [Compound 54]	26 to 50%
COc1ccccc1CC(=O)Nc1cccc2c(=O)n(CC3(O)CCCCC3)ccc12 [Compound 29]	26 to 50%
Cc1cc(C(=O)Nc2cccc3c(=O)n(CC4(O)CCCCC4)ccc23)ccc1Cl [Compound 17]	0 to 25%
CC(C)Cc1ccc(C(=O)Nc2cccc3c(=O)n(CC4(O)CCCCC4)ccc23)cc1 [Compound 59]	26 to 50%
CC(C)C(C(=O)Nc1cccc2c(=O)n(CCO)ccc12)c1ccc(Cl)cc1 (stereo not shown) [Compound 78]	0 to 25%

Same assay, conditions: 0.3 μM compound; differentiated THP-1 cells, BzATP 250 uM; "+" symbols; read-out: IL-1β % Inhib. @ 0.3 or 0.1 uM

Compound	inhibition at 0.3 µM
CC(C(=O)Nc1cccc2c(=O)n([C@@H](C)C(N)=O)ccc12)c1ccc(Cl)cc1 (stereo partly shown) [Compound 240]	> 76%
CC(=O)NCCn1ccc2c(NC(=O)Cc3ccc(C(F)(F)F)c(F)c3)cccc2c1=O [Compound 390]	0 to 25%
C[C@H](C(N)=O)n1ccc2c(NC(=O)Cc3ccc(OC(F)(F)F)cc3)cccc2c1=O [Compound 311]	51 to 75%
C[C@@H](C(N)=O)n1ccc2c(NC(=O)Cc3ccc(Cl)nc3)cccc2c1=O [Compound 310]	0 to 25%
CC(C(=O)Nc1cccc2c(=O)n(C[C@H]3CCCN3)ccc12)c1ccc(Cl)cc1 (stereo partly shown) [Compound 242]	26 to 50%
CC(C(=O)Nc1cccc2c(=O)n(CCO)ccc12)c1ccc(Cl)c(C(F)(F)F)c1 (stereo not shown) [Compound 251]	> 76%
C[C@H](CO)n1ccc2c(NC(=O)Cc3ccc(Cl)cc3F)cccc2c1=O [Compound 327]	> 76%
C[C@H](C(N)=O)n1ccc2c(NC(=O)Cc3ccc(C(F)(F)F)cc3F)cccc2c1=O [Compound 296]	> 76%
C[C@H](C(N)=O)n1ccc2c(NC(=O)Cc3cc(F)c(F)cc3F)cccc2c1=O [Compound 305]	> 76%
C[C@@H](CO)n1ccc2c(NC(=O)Cc3ccc(Cl)c(F)c3)cccc2c1=O [Compound 334]	51 to 75%
CNC(=O)[C@@H](CO)n1ccc2c(NC(=O)C(C)c3ccc(Cl)cc3)cccc2c1=O (stereo partly shown) [Compound 261]	51 to 75%

Same assay, conditions: THP-1 cells, BzATP 250 uM, IL-1β by ELISA

Compound	IC50
CC(=O)NCCn1ccc2c(NC(=O)Cc3ccc(C(F)(F)F)c(F)c3)cccc2c1=O [Compound 390]	> 1000 nM
C[C@H](C(N)=O)n1ccc2c(NC(=O)Cc3ccc(OC(F)(F)F)cc3)cccc2c1=O [Compound 311]	150 nM
CC(C(=O)Nc1cccc2c(=O)n(C[C@H]3CCCN3)ccc12)c1ccc(Cl)cc1 (stereo partly shown) [Compound 242]	356 nM
